SMILES strings stand for the structures.

The results in this text go back to article PMC11066877, “Development and Characterization of Novel FAP-Targeted Theranostic Pairs: A Bench-to-Bedside Study” (Research, 2023).

Data set [1] can be described thus: microPET/CT imaging, ROI analysis, BxPC-3 tumor models. Conditions: nude (thymus-free), mouse, intravenous, 3 MBq, 4 h p.i. It counts as in vivo, mice. The procedure: (§1) A human pancreatic cancer cell line BxPC-3 and a murine pancreatic cancer cell Panc-02 were obtained from the American Type Culture Collection. The pancreatic cancer cell line T3M-4 was purchased by MeisenCTCC (Zhejiang, China). BxPC-3 and T3M-4 cell lines were grown in RPMI 1640 medium (Shanghai BasalMedia Technologies Co., LTD.) containing 10% FBS (GE Healthcare, Chicago, IL, USA) and 1% penicillin–streptomycin solution (Invitrogen). To culture the Panc-02 cell line, a medium called Dulbecco’s modified Eagle medium from Shanghai BasalMedia Technologies Co., LTD. was used, which consisted of 10% FBS. The cell line HT-1080 was grown in MEM medium (Shanghai BasalMedia Technologies Co., LTD.) supplemented with 10% FBS, 1% penicillin-streptomycin solution, and 1% nonessential amino acids (NEAA-11140050; Gibco). A human fibrosarcoma cell line was stably transfected with FAP (HT1080-FAP) and cultured, as we previously described. All cell lines were cultured in a humid incubator with 5% CO2 at a temperature of 37 °C. Approval was granted by the Institutional Animal Care and Use Committee (Renji Hospital, School of Medicine, Shanghai Jiao Tong University) for all experimental protocols and procedures related to animal care. Panc-02 cells were implanted by subcutaneous injection of 5 × 10^6 tumor cells suspended in 100 μl PBS and matrigel matrix (Corning) with equal volume into the upper limb flank of C57BL/6 mice (Shanghai Sheng Chang Biotechnology Co., Ltd.). Four- to 6-week-old thymus-free nude mice (GemPharmatech) were subcutaneously inoculated with BxPC-3, T3M-4, HT-1080, and HT1080-FAP cells (5 × 10^6 in 100 μl of PBS mixing with 100 μl matrigel matrix) in the right shoulder. […]
(§2) MicroPET imaging was performed on isoflurane-anesthetized mice injected intravenously via the lateral tail vein with around 3 MBq (2.5 nmol) of the radioligand at certain times. […] The information was analyzed using OsiriX Lite software (Pixmeo SARL) and Inveon Research Workplace (Siemens Preclinical Solutions). […]

Data set [2] can be described thus: microPET/CT imaging, ROI analysis, Panc-02 tumor models. It is filed as in vivo, mice. Conditions: C57BL/6, mouse, intravenous, 3 MBq, 4 h p.i. The procedure:
as §1, §2

A short description of data set [3]: microPET/CT imaging, ROI analysis, HT-1080 tumor models. It counts as in vivo, mice. Conditions: nude (thymus-free), mouse, intravenous, 3 MBq, 4 h p.i. The procedure:
as §1, §2

Data set [4] is described as follows: Stability of 177Lu-labeled radiopharmaceuticals in FBS and PBS. It is filed as in vitro ADME. The note with it: 50% FBS and 50% PBS, checked at 2 h and 24 h. The procedure: To perform ^68Ga-labeling, approximately 20 nmol of FD1, FD2, or FD3 was dissolved in 20 μl of dimethyl sulfoxide and 230 μl of sterile deionized water. This mixture was added to 400 μl of ^68GaCl3 solution (containing 37 MBq) in 0.1 M HCl, with pH adjusted to 4.0 using 0.1 M NH4OAC. The mixture was incubated at 100 °C for 10 min without any additional purification steps. For ^177Lu-labeling, high-purity radionuclide ^177LuCl3 in 0.04 M HCl (3.9 GBq in 97 μl) was purchased from ITM (Munich, Germany). ^177LuCl3 solution (555 MBq in 0.04 M HCl) was added to 500 μl of 1M NH4OAC (pH = 5), followed by the addition of 375 nmol of FD1, FD2, or FD3. The solution was shaken at a temperature of 100 °C for a duration of 30 min. Instant thin-layer chromatography (iTLC; Eckert & Ziegler Radiopharma Inc.) was used to evaluate the RCP of the final products. For iTLC, the mobile phase consisted of 1 M NH4OAC and methyl alcohol in a ratio of 1:1. The final solution must be adjusted to pH 7.0 before being injected into the experimental mice via the tail vein. The stability of ^177Lu-labeled radiopharmaceuticals was evaluated in a mixture of 50% FBS and 50% PBS at 2 h and 24 h after preparation. In the process of preparing each [^68Ga]Ga-DOTA-FD1 for clinical imaging, the end product underwent sterilization by passing it through a 0.22-μm Millipore filter.

Data set [5] is described as follows: Ex vivo biodistribution of 177Lu-labeled radioligands in tumor-free nude mice. Conditions: mouse, intravenous, 1.11 MBq, total radioactivity. The source says: After imaging collection and image reconstruction, samples from euthanized experimental mice, including blood and multiple significant organs, were harvested and weighed. The radioactivity in each collected tissue was counted using an automated gamma counter (Wizard 2480, PerkinElmer) and the accumulation of radioactivity in different tissues and organs was quantified and expressed as %ID/g (mean ± SD). [^177Lu]Lu-DOTA-FD1 (~1.11 MBq, n = 3), [^177Lu]Lu-DOTA-FD2 (~1.11 MBq, n = 3), and [^177Lu]Lu-DOTA-FD3 (~1.11 MBq, n = 3) were injected into the tail vein of free nude mice at 6 h, 24 h, and 24 h for ex vivo biodistribution to verify the circulation time of the 3 probes in vivo. Biodistribution data from tumor-bearing mice injected with [^177Lu]Lu-DOTA-FD3 at 45 h (~1.11 MBq, n = 4) and 90 h (~1.11 MBq, n = 3) validated the prolonged enrichment of the probe at the tumor site. At the end of each probe imaging and radioactivity counting study, tumor tissues were fixed in paraformaldehyde tissue fixative. Briefly, sections of 10 μm were cut and stained for H&E following the standard protocols. IHC staining with a FAP antibody (ab227703, Abcam) was performed only on tumor tissues following accepted techniques.

The subject of data set [6] is HT1080-FAP tumor. As to the kind of experiment: FAP-targeted radioligand therapy in HT1080-FAP tumor models. It is filed as in vivo, mice. The procedure: HT1080-FAP tumor models with higher levels of FAP expression were utilized in this study. Tumor-bearing mice were subjected to therapy experiments when the tumor volume reached 50 to 180 mm^3. Tumor models with different tumor volumes were injected with different therapeutic doses. Mice bearing HT1080-FAP tumors of slightly larger tumor volumes were randomly assigned into 4 groups (n = 5 per group): control group and treatment groups with 800 μCi of [^177Lu]Lu-DOTA-FD1, 400 μCi of [^177Lu]Lu-DOTA-FD3, and 600 μCi [^177Lu]Lu-DOTA-FD3. Mice bearing HT1080-FAP tumors of slightly smaller tumor volumes were also divided into 4 groups (n = 6 per group): control group and treatment groups with 200 μCi of [^177Lu]Lu-DOTA-FD1, 200 μCi of [^177Lu]Lu-DOTA-FD2, and 200 μCi of [^177Lu]Lu-DOTA-FD3. Tumor volume and mice body weight were examined daily after a single-dose injection. Weight monitoring is expressed as a percentage of initial weight on the measurement day. Tumor volume was measured as half of the length × width squared times. Mice were euthanized when the tumor volume exceeded 1,500 mm^3, the tumor ruptured, or when it lost more than 20% of its body weight. T3M-4 tumor models with abundant stroma were established to validate the therapeutic efficacy of [^177Lu]Lu-DOTA-FD3. When the tumor volume grew to 100 to 150 mm^3, the mice were randomly divided into 2 groups (n = 7 per group): free ^177Lu treatment group and 500 μCi [^177Lu]Lu-DOTA-FD3 treatment group. Tumor volume and mice body weight were examined every 2 days.

Take `CCCCCC(=O)N[C@H]1CSCc2cc(CSCCNC(=O)[C@H](CCCCNC(=O)CCCc3ccc(I)cc3)NC(=O)[C@@H](NC(=O)[C@H](CCSC)NC(=O)CN3CCN(CC(=O)O)CCN(CC(=O)O)CCN(CC(=O)O)CC3)C(C)C)cc(c2)CSC[C@@H](C(=O)O)NC(=O)[C@H](Cc2ccccc2)NC(=O)[C@H](CCC(N)=O)NC(=O)[C@H]([C@@H](C)O)NC(=O)[C@@H]2CCCN2C(=O)[C@@H]2CCCN2C1=O` [[^68Ga]Ga-DOTA-FD3, metal not drawn]: the tissue uptake at 4 h in data set [1] was 7.07 ± 0.45 %ID/g; in data set [2], 7.03 ± 1 %ID/g; in data set [3] it was 9.97 ± 0.42 %ID/g.
Turning to `CCCCCC(=O)N[C@H]1CSCc2cc(CSCCNC(=O)[C@H](CCCCN)NC(=O)[C@@H](NC(=O)[C@H](CCSC)NC(=O)CN3CCN(CC(=O)O)CCN(CC(=O)O)CCN(CC(=O)O)CC3)C(C)C)cc(c2)CSC[C@@H](C(=O)O)NC(=O)[C@H](Cc2ccccc2)NC(=O)[C@H](CCC(N)=O)NC(=O)[C@H]([C@@H](C)O)NC(=O)[C@@H]2CCCN2C(=O)[C@@H]2CCCN2C1=O` [[^177Lu]Lu-DOTA-FD1, metal not drawn], the “stable in FBS and PBS, no significant demetallation” value in data set [4] is “at least 24 h”. Further, the tissue uptake at 6 h in data set [5] (kidney, 6 h p.i., read-out: radioactivity uptake in kidneys (biodistribution)) came out at 30.4 ± 3.1 %ID/g. Moreover, in data set [6] (average tumor volume 180 mm^3 at onset, single dose 800 μCi), the “tumor volume versus control group” value is on record as “no difference in tumor volume”.
For the compound `CCCCCC(=O)N[C@H]1CSCc2cc(CSCCNC(=O)[C@H](CCCCNC(=O)CCCc3ccc(I)cc3)NC(=O)CN3CCN(CC(=O)O)CCN(CC(=O)O)CCN(CC(=O)O)CC3)cc(c2)CSC[C@@H](C(=O)O)NC(=O)[C@H](Cc2ccccc2)NC(=O)[C@H](CCC(N)=O)NC(=O)[C@H]([C@@H](C)O)NC(=O)[C@@H]2CCCN2C(=O)[C@@H]2CCCN2C1=O` [[^177Lu]Lu-DOTA-FD2, metal not drawn], the “stable in FBS and PBS, no significant demetallation” value in data set [4] was “at least 24 h”. Further, in data set [5] (blood, 24 h p.i., read-out: accumulation in the blood pool (biodistribution)), the tissue uptake at 24 h turned out to be 31.8 ± 2.24 %ID/g. Also, the “tumor growth at the end of the study” value in data set [6] (average tumor volume 50 mm^3 at onset, single dose 200 μCi) was “substantially inhibited the tumor growth”. Moreover, in data set [6] (average tumor volume 50 mm^3 at onset, single dose 200 μCi, 6 mice per group), the “mice that acquired complete response (CR)” value is 1 of the 6.
